The values that follow come from patent US11034715B2, “Ectonucleotidase inhibitors and methods of use thereof” (Calithera Biosciences, Inc., priority 2016, dated 2021).

Bounds are passed on as bounds.

recombinant CD73, sequence (P21589 27-547): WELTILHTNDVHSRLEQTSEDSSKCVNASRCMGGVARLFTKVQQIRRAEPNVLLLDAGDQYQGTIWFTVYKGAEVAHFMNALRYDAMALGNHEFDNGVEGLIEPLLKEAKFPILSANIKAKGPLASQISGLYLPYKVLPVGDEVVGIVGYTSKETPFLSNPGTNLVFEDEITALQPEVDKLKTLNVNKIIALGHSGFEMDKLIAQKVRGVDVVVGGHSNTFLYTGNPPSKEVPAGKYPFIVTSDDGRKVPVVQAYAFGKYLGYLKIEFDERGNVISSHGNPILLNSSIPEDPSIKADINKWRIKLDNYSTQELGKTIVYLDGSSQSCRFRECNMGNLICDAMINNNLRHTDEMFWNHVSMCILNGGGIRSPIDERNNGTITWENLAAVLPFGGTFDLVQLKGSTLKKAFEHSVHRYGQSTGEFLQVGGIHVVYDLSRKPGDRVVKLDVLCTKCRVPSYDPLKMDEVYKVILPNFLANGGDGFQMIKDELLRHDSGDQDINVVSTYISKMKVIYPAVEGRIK

The first test deals with recombinant CD73 (Homo sapiens (Human), UniProt P21589). Briefly: Inhibition of the CD73 enzyme in vitro (soluble recombinant CD73, AMP, Malachite Green). Type of test: biochemical. The following applies: recombinant CD73 0.5 nM, AMP 50 μM, 30 minutes at room temperature. The procedure:
The concentration of inorganic phosphate was determined using a phosphate standard curve.
For `CCOC(=O)C(Cc1ccc(OC(F)(F)F)cc1)(OC[C@H]1O[C@@H](n2cnc3c(N)nc(Cl)nc32)[C@@H](F)[C@@H]1O)C(=O)O` (single isomer, unassigned) [compound 38], the IC50 amounted to 686 nM.
Take `Nc1nc(Cl)nc2c1ncn2[C@@H]1O[C@H](COC(Cc2cccc(Oc3ccccc3)c2)(C(=O)O)C(=O)O)[C@@H](O)[C@@H]1F` [compound 13, 2-(((2R,3R,4S,5R)-5-(6-amino-2-chloro-9H-purin-9-yl)-4-fluoro-3-hydroxytetrahydrofuran-2-yl)methoxy)-2-(3-phenoxybenzyl)malonic acid]: the IC50 turned out to be 403 nM.
With `Nc1nc(Cl)nc2c1ncn2[C@@H]1O[C@H](COC(Cc2cccc(C(F)(F)F)c2)(C(=O)O)C(=O)O)[C@@H](O)[C@@H]1F` [compound 16, 2-(((2R,3R,4S,5R)-5-(6-amino-2-chloro-9H-purin-9-yl)-4-fluoro-3-hydroxytetrahydrofuran-2-yl)methoxy)-2-(3-(trifluoromethyl)benzyl)malonic acid], the IC50 stood at 257 nM.
The same measure, in the same setting: next, `Nc1nc(Cl)nc2c1ncn2[C@@H]1O[C@H](COC(Cc2ccc3ccccc3c2)(C(=O)O)C(=O)O)[C@@H](O)[C@@H]1F` [compound 17, 2-(((2R,3R,4S,5R)-5-(6-amino-2-chloro-9H-purin-9-yl)-4-fluoro-3-hydroxytetrahydrofuran-2-yl)methoxy)-2-(naphthalen-2-ylmethyl)malonic acid]: 699 nM; `CS(=O)(=O)c1ccc(CC(OC[C@H]2O[C@@H](n3cnc4c(N)nc(Cl)nc43)[C@@H](F)[C@@H]2O)(C(=O)O)C(=O)O)cc1` [compound 21, 2-(((2R,3R,4S,5R)-5-(6-amino-2-chloro-9H-purin-9-yl)-4-fluoro-3-hydroxytetrahydrofuran-2-yl)methoxy)-2-(4-(methylsulfonyl)benzyl) malonic acid]: 193 nM.
On the same count and under the same terms, with `O=C(O)C(Cc1ccccc1)(OC[C@H]1O[C@@H](n2cnc3c(NCc4ccccc4)nc(Cl)nc32)[C@@H](F)[C@@H]1O)C(=O)O` [compound 28, 2-benzyl-2-(((2R,3R,4S,5R)-5-(6-(benzylamino)-2-chloro-9H-purin-9-yl)-4-fluoro-3-hydroxytetrahydrofuran-2-yl)methoxy)malonic acid] the figure was 2650 nM.
Still for that read-out and setting: next, `Nc1nc(Cl)nc2c1ncn2[C@@H]1O[C@H](COC(Cc2nnn[nH]2)(C(=O)O)C(=O)O)[C@@H](O)[C@@H]1F` [compound 50, 2-((1H-tetrazol-5-yl)methyl)-2-(((2R,3R,4S,5R)-5-(6-amino-2-chloro-9H-purin-9-yl)-4-fluoro-3-hydroxytetrahydrofuran-2-yl)methoxy)malonic acid]: 1910 nM; `Nc1nc(Cl)nc2c1ncn2[C@@H]1O[C@H](COC(Cc2ccccc2)(C(=O)O)C(=O)O)[C@@H](N)[C@H]1O` [compound 51, 2-(((2S,3S,4R,5R)-3-amino-5-(6-amino-2-chloro-9H-purin-9-yl)-4-hydroxytetrahydrofuran-2-yl)methoxy)-2-benzylmalonic acid]: 1870 nM.
Regarding `Nc1nc(Cl)nc2c1ncn2[C@@H]1O[C@H](COC(Cc2cccc(-c3nnn[nH]3)c2)(C(=O)O)C(=O)O)[C@@H](O)[C@@H]1F` [compound 53, 2-(3-(1H-tetrazol-5-yl)benzyl)-2-(((2R,3R,4S,5R)-5-(6-amino-2-chloro-9H-purin-9-yl)-4-fluoro-3-hydroxytetrahydrofuran-2-yl)methoxy)malonic acid], the half-inhibitory concentration (IC50) came to 448 nM.
On the same count and under the same terms, with `Nc1nc(Cl)nc2c1ncn2[C@@H]1O[C@H](COC(Cc2ccc(-c3nnn[nH]3)cc2)(C(=O)O)C(=O)O)[C@@H](O)[C@@H]1F` [compound 54, 2-(4-(1H-tetrazol-5-yl)benzyl)-2-(((2R,3R,4S,5R)-5-(6-amino-2-chloro-9H-purin-9-yl)-4-fluoro-3-hydroxytetrahydro-furan-2-yl)methoxy)malonic acid] the figure was 220 nM.
For the compound `Nc1nc(Cl)nc2c1ncn2[C@@H]1O[C@H](COC(Cc2cccc(O)c2)(C(=O)O)C(=O)O)[C@@H](O)[C@@H]1F` [compound 56, 2-(((2R,3R,4S,5R)-5-(6-amino-2-chloro-9H-purin-9-yl)-4-fluoro-3-hydroxytetrahydrofuran-2-yl)methoxy)-2-(3-hydroxybenzyl)malonic acid], the IC50 was found to be 168 nM.
Still for that read-out and setting: next, `Nc1nc(Cl)nc2c1ncn2[C@@H]1O[C@H](COC(Cc2ccc(C(=O)O)cc2F)(C(=O)O)C(=O)O)[C@@H](O)[C@@H]1F` [compound 57, 2-(((2R,3R,4S,5R)-5-(6-amino-2-chloro-9H-purin-9-yl)-4-fluoro-3-hydroxytetrahydrofuran-2-yl)methoxy)-2-(4-carboxy-2-fluorobenzyl)malonic acid]: 142 nM.
On the same count and under the same terms, next, `Nc1nc(Cl)nc2c1ncn2[C@@H]1O[C@H](COC(Cc2ccc(C(=O)O)c(F)c2)(C(=O)O)C(=O)O)[C@@H](O)[C@@H]1F` [compound 58, 2-(((2R,3R,4S,5R)-5-(6-amino-2-chloro-9H-purin-9-yl)-4-fluoro-3-hydroxytetrahydro-furan-2-yl)methoxy)-2-(4-carboxy-3-fluorobenzyl)malonic acid]: 38 nM; `Nc1nc(Cl)nc2c1ncn2[C@@H]1O[C@H](COC(Cc2ccc(C(F)(F)F)o2)(C(=O)O)C(=O)O)[C@@H](O)[C@@H]1F` [compound 59, 2-(((2R,3R,4S,5R)-5-(6-amino-2-chloro-9H-purin-9-yl)-4-fluoro-3-hydroxytetrahydro-furan-2-yl)methoxy)-2-((5-(trifluoromethyl)-furan-2-yl)methyl)malonic acid]: 439 nM; `Nc1nc(Cl)nc2c1ncn2[C@@H]1O[C@H](COC(Cc2ccc(C(F)(F)F)c(F)c2)(C(=O)O)C(=O)O)[C@@H](O)[C@@H]1F` [compound 60, 2-(((2R,3R,4S,5R)-5-(6-amino-2-chloro-9H-purin-9-yl)-4-fluoro-3-hydroxytetrahydro-furan-2-yl)methoxy)-2-(3-fluoro-4-(trifluoromethyl)benzyl) malonic acid]: 51 nM.
Still for that read-out and setting: next, `Nc1nc(Cl)nc2c1ncn2[C@@H]1O[C@H](COC(Cc2cc(-c3ccccc3)no2)(C(=O)O)C(=O)O)[C@@H](O)[C@@H]1F` [compound 61, 2-(((2R,3R,4S,5R)-5-(6-amino-2-chloro-9H-purin-9-yl)-4-fluoro-3-hydroxytetrahydrofuran-2-yl)methoxy)-2-((3-phenylisoxazol-5-yl)methyl)malonic acid]: 2250 nM; `Nc1nc(Cl)nc2c1ncn2[C@@H]1O[C@H](COC(Cc2cnn(Cc3ccccc3)c2)(C(=O)O)C(=O)O)[C@@H](O)[C@@H]1F` [compound 63, 2-(((2R,3R,4S,5R)-5-(6-amino-2-chloro-9H-purin-9-yl)-4-fluoro-3-hydroxytetrahydro-furan-2-yl)methoxy)-2-((1-benzyl-1H-pyrazol-4-yl)methyl)malonic acid]: 1220 nM; `Nc1nc(Cl)nc2c1ncn2[C@@H]1O[C@H](COC(Cc2cn[nH]c2)(C(=O)O)C(=O)O)[C@@H](O)[C@@H]1F` [compound 64, 2-((1H-pyrazol-4-yl)methyl)-2-(((2R,3R,4S,5R)-5-(6-amino-2-chloro-9H-purin-9-yl)-4-fluoro-3-hydroxytetrahydrofuran-2-yl)methoxy)malonic acid]: 860 nM.

The test is the same for the next values; noted with them: recombinant CD73 0.5 nM, AMP 50 μM; class symbols (Table 4).
For `CCOC(=O)C(Cc1ccccc1)(OC[C@H]1O[C@@H](n2cnc3c(NCc4ccccc4)nc(Cl)nc32)[C@H](O)[C@@H]1O)C(=O)OCC`, the half-inhibitory concentration (IC50) is less than 1000 nM.
